Assay results as given in US9580449B2, “Compositions and methods for the production of pyrimidine and pyridine compounds with BTK inhibitory activity” (Merck Patent GmbH, priority 2011, dated 2017).

Molecular target: full-length human BTK (Homo sapiens (Human), UniProt Q06187)
Test: BTK IC50 enzyme assay (microfluidic off-chip mobility shift kinase assay)
Assay type: biochemical
Conditions: incubated for 90 min. at 27 C; read-out: Time Dependent BTK Enzyme Assay IC50
Method: The following describes a microfluidic, off-chip mobility shift kinase assay used to measure inherent potency of compounds against BTK enzyme. Compounds described by embodiments of the present invention were assayed using this protocol and the data from the same is recorded in Table 2 within the column labeled: “Time Dependent BTK Enzyme Assay IC50”.
Stopped reactions were monitored at −2 PSI, −3000 V/−700 V in a LabChip 3000 plate reader from Caliper Life Sciences, a PerkinElmer Company (Hopkinton, Mass.), and the activity was measured by off-chip mobility shift assay measuring the charge/mass difference between substrate and product resulting from peptide phosphorylation. IC50 and efficacy were determined by plotting log [Inhibitor] vs. % Activity in GeneData Screener (Basel, Switzerland). […] I<1 uM and II>1 uM.

Sequence of full-length human BTK (Q06187 whole entry): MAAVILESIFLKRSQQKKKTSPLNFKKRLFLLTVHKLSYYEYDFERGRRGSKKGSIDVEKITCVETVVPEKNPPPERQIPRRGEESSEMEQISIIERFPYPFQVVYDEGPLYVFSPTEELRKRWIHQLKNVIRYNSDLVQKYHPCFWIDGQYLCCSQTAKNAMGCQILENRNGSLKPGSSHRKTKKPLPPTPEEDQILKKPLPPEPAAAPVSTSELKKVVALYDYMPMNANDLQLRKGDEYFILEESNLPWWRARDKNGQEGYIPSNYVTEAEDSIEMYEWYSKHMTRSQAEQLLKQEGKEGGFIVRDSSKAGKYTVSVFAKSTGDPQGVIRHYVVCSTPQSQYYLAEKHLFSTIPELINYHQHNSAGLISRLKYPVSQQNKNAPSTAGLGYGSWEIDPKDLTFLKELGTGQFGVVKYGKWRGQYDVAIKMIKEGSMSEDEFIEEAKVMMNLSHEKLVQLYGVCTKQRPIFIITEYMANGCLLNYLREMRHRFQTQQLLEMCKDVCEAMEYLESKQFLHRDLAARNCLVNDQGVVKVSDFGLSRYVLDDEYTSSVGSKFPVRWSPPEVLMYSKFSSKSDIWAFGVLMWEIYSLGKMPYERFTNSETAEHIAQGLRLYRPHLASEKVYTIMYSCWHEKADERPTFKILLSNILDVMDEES

Row | Compound | IC50
1 | Nc1ncnc(Oc2cccc(NC(=O)/C=C/CN3CCOCC3)c2)c1-c1ccc(Oc2ccccc2)cc1 [A265, (E)-N-(3-((6-amino-5-(4-phenoxyphenyl)pyrimidin-4-yl)oxy)phenyl)-4-morpholinobut-2-enamide] | < 100 nM
2 | CN(C)C/C=C/C(=O)N[C@@H]1CCC[C@H](Nc2ncnc(N)c2-c2ccc(Oc3ccccc3)cc2)C1 (relative stereo) [A63, (E)-N-(cis-3-((6-amino-5-(4-phenoxyphenyl)pyrimidin-4-yl)amino)cyclohexyl)-4-(dimethylamino)but-2-enamide] | < 1000 nM
3 | CN(C)C/C=C/C(=O)N1CC[C@@H](Nc2ncnc(N)c2-c2ccc(Oc3ccccc3)cc2)C1 [A73, (R,E)-1-(3-((6-amino-5-(4-phenoxyphenyl)pyrimidin-4-yl)amino)pyrrolidin-1-yl)-4-(dimethylamino)but-2-en-1-one] | < 1000 nM
4 | C=CC(=O)N1C[C@@H](F)C[C@H](Nc2ncnc(N)c2-c2ccc(Oc3ccccc3)cc2)C1 [A204, 1-((3S,5S)-3-((6-amino-5-(4-phenoxyphenyl)pyrimidin-4-yl)amino)-5-fluoropiperidin-1-yl)prop-2-en-1-one] | < 100 nM
5 | C=CC(=O)N1CCC(CNc2ncnc(N)c2-c2ccc(OC(F)(F)F)cc2)CC1 [A78, 1-(4-(((6-amino-5-(4-(trifluoromethoxy)phenyl)pyrimidin-4-yl)amino)methyl)piperidin-1-yl)prop-2-en-1-one] | > 1000 nM
6 | C=CC(=O)Nc1cccc(Oc2ncnc(N)c2-c2cnn(Cc3cccc(OC)c3)c2)c1 [A198, N-(3-((6-amino-5-(1-(3-methoxybenzyl)-1H-pyrazol-4-yl)pyrimidin-4-yl)oxy)phenyl)acrylamide] | < 100 nM
7 | C=CC(=O)Nc1cccc(Oc2ncnc(N)c2-c2ccc(Oc3ccccc3)nc2)c1 [A268, N-(3-((6-amino-5-(6-phenoxypyridin-3-yl)pyrimidin-4-yl)oxy)phenyl)acrylamide] | < 100 nM

Results, then the compound that gave them:

Row | IC50 | Compound
8 | < 100 nM | CCC(=O)Nc1cccc(Oc2ncnc(N)c2-c2ccc(OCc3ccccc3)cc2)c1 [A346, N-{3-[6-Amino-5-(4-benzyloxy-phenyl)-pyrimidin-4-yloxy]-phenyl}-propionamide]
9 | < 1000 nM | Nc1ncnc(NCC2CCN(C(=O)/C=C/CN3CC(F)C3)CC2)c1-c1ccc(Oc2ccccc2)cc1 [A218, (E)-1-(4-(((6-amino-5-(4-phenoxyphenyl)pyrimidin-4-yl)amino)methyl)piperidin-1-yl)-4-(3-fluoroazetidin-1-yl)but-2-en-1-one]
10 | < 100 nM | C=CC(=O)Nc1cccc(Nc2ncncc2-c2ccc(Oc3ccccc3)cc2)n1 [A167, N-(6-((5-(4-phenoxyphenyl)pyrimidin-4-yl)amino)pyridin-2-yl)acrylamide]
11 | < 100 nM | C=CC(=O)Nc1cccc(Oc2ncnc(N)c2-c2cnn(Cc3ccc(OC)cc3)c2)c1 [A72, N-(3-((6-amino-5-(1-(4-methoxybenzyl)-1H-pyrazol-4-yl)pyrimidin-4-yl)oxy)phenyl)acrylamide]
12 | < 100 nM | C=CC(=O)N1CCO[C@@H](COc2ncnc(N)c2-c2ccc(Oc3ccccc3)cc2)C1 [A66, (R)-1-(2-(((6-amino-5-(4-phenoxyphenyl)pyrimidin-4-yl)oxy)methyl)morpholino)prop-2-en-1-one]
13 | < 100 nM | CN(C)C/C=C/C(=O)Nc1cccc(-c2cnccc2Oc2ccc(Oc3ccccc3)cc2)c1 [A282, (E)-4-(dimethylamino)-N-(3-(4-(4-phenoxyphenoxy)pyridin-3-yl)phenyl)but-2-enamide]
14 | > 1000 nM | C=CC(=O)NCCOc1ncnc(N)c1-c1ccc(Oc2ccccc2)cc1 [A27, N-(2-((6-amino-5-(4-phenoxyphenyl)pyrimidin-4-yl)oxy)ethyl)acrylamide]
15 | < 100 nM | C=CC(=O)N1CCC(CNc2ncnc(N)c2-c2ccc(Oc3ccccc3)c(F)c2F)CC1 [A88, 1-(4-(((6-amino-5-(2,3-difluoro-4-phenoxyphenyl)pyrimidin-4-yl)amino)methyl)piperidin-1-yl)prop-2-en-1-one]
